Assay results as given in PubChem BioAssay AID1963871 (Molecular Pharmacology Branch, DTP, NCI, 2024).

System: KRAS-mutant PDC multicell tumor spheroid viability
Assay: Anticancer human tumor 521955-158-R2-J5-PDC patient-derived pancreatic carcinoma cell line growth inhibition [KRAS2]
Conditions: for IC50: curve of first compound; for viability, T/C: stronger effect = lower value
Procedure, shortened: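 KRAS-mutant tumor cells were grown as spheroids with HUVEC endothelial cells and human MSCs as stroma. Targeted agents were tested alone and with KRAS pathway inhibitors. Doses started at or near clinical Cmax, or 10 microM, descending half-log.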

[1] = second compound 0.1 µM, first compound 0.01 µM
[2] = second compound 0.1 µM, first compound 0.0316 µM
[3] = second compound 0.1 µM, first compound 0.1 µM
[4] = second compound 0.316 µM, first compound 0.01 µM
[5] = second compound 0.316 µM, first compound 0.0316 µM
[6] = second compound 0.316 µM, first compound 0.1 µM
[7] = second compound 1 µM, first compound 0.01 µM
[8] = second compound 1 µM, first compound 0.0316 µM
[9] = second compound 1 µM, first compound 0.1 µM
[10] = second compound 3.16 µM, first compound 0.01 µM
[11] = second compound 3.16 µM, first compound 0.0316 µM
[12] = second compound 3.16 µM, first compound 0.1 µM
[13] = second compound 10 µM, first compound 0.01 µM
[14] = second compound 10 µM, first compound 0.0316 µM
[15] = second compound 10 µM, first compound 0.1 µM
[16] = second compound 0.1 µM, first compound 0.316 µM
[17] = second compound 0.1 µM, first compound 1 µM
[18] = second compound 0.1 µM, first compound 3.16 µM
[19] = second compound 0.1 µM, first compound 10 µM
[20] = second compound 0.316 µM, first compound 0.316 µM
[21] = second compound 0.316 µM, first compound 1 µM
[22] = second compound 0.316 µM, first compound 3.16 µM
[23] = second compound 0.316 µM, first compound 10 µM
[24] = second compound 1 µM, first compound 0.316 µM
[25] = second compound 1 µM, first compound 1 µM
[26] = second compound 1 µM, first compound 3.16 µM
[27] = second compound 1 µM, first compound 10 µM
[28] = second compound 3.16 µM, first compound 0.316 µM
[29] = second compound 3.16 µM, first compound 1 µM
[30] = second compound 3.16 µM, first compound 3.16 µM
[31] = second compound 3.16 µM, first compound 10 µM
[32] = second compound 10 µM, first compound 0.316 µM
[33] = second compound 10 µM, first compound 1 µM
[34] = second compound 10 µM, first compound 3.16 µM
[35] = second compound 10 µM, first compound 10 µM
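Also: viability read after seven days of drug exposure.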

| SMILES | IC50 (second compound 0.1 µM) | IC50 (second compound 0.316 µM) | IC50 (second compound 1 µM) | IC50 (second compound 3.16 µM) | IC50 (second compound 10 µM) | viability, T/C [2] | viability, T/C [3] | viability, T/C [5] | viability, T/C [6] | viability, T/C [8] | viability, T/C [9] | viability, T/C [11] | viability, T/C [12] | viability, T/C [14] | viability, T/C [15] | viability, T/C [16] | viability, T/C [17] | viability, T/C [18] | viability, T/C [20] | viability, T/C [21] | other results |
| --- | --- | --- | --- | --- | --- | --- | --- | --- | --- | --- | --- | --- | --- | --- | --- | --- | --- | --- | --- | --- | --- |
| CC(C)n1nc(-c2ccc3oc(N)nc3c2)c2c(N)ncnc21 + CNCc1ccccc1-c1csc(C(C)Nc2nc(C)nc3cc(OC)c(OC)cc23)c1 | 0.00742 µM | 0.00911 µM | 0.00662 µM | < 0.000316 µM | < 0.000316 µM | 34.1% | 25.2% | 30.7% | 23.8% | 30.9% | 21.6% | 1.25% | 0.88% | 0.15% | 0.2% |  |  |  |  |  | viability, T/C (second compound 0.1 µM, first compound 0.000316 µM): 91.2%; viability, T/C (second compound 0.1 µM, first compound 0.001 µM): 85.3%; viability, T/C (second compound 0.1 µM, first compound 0.00316 µM): 61.2%; viability, T/C [1]: 45.8%; viability, T/C (second compound 0.316 µM, first compound 0.000316 µM): 84%; viability, T/C (second compound 0.316 µM, first compound 0.001 µM): 83.2%; viability, T/C (second compound 0.316 µM, first compound 0.00316 µM): 67.1%; viability, T/C [4]: 49.4%; viability, T/C (second compound 1 µM, first compound 0.000316 µM): 92.5%; viability, T/C (second compound 1 µM, first compound 0.001 µM): 82.7%; viability, T/C (second compound 1 µM, first compound 0.00316 µM): 62.2%; viability, T/C [7]: 42.1%; viability, T/C (second compound 3.16 µM, first compound 0.000316 µM): 32.1%; viability, T/C (second compound 3.16 µM, first compound 0.001 µM): 43.5%; viability, T/C (second compound 3.16 µM, first compound 0.00316 µM): 0.4%; viability, T/C [10]: 0.49%; viability, T/C (second compound 10 µM, first compound 0.000316 µM): 0.38%; viability, T/C (second compound 10 µM, first compound 0.001 µM): 0.15%; viability, T/C (second compound 10 µM, first compound 0.00316 µM): 0.47%; viability, T/C [13]: 0.13% |
| CC(C)NCC(C(=O)N1CCN(c2ncnc3c2C(C)CC3O)CC1)c1ccc(Cl)cc1 (stereo not drawn) + CC1OCC2(CCN(c3cnc(Sc4ccnc(N)c4Cl)c(N)n3)CC2)C1N | > 10 µM | > 10 µM | 1.08 µM | 0.287 µM | 0.483 µM | 67.8% | 82.7% | 65.3% | 66.8% | 62% | 60.9% | 56.5% | 57.8% | 54.1% | 66.9% | 67.7% | 61.8% | 74.3% | 55.4% | 60.3% | viability, T/C [19]: 53.7%; viability, T/C [22]: 61.2%; viability, T/C [23]: 48.7%; viability, T/C [24]: 46.5%; viability, T/C [25]: 51.3%; viability, T/C [26]: 53.3%; viability, T/C [27]: 39.5%; viability, T/C [28]: 43.1%; viability, T/C [29]: 41.5%; viability, T/C [30]: 48.4%; viability, T/C [31]: 27.7%; viability, T/C [32]: 51.2%; viability, T/C [33]: 38%; viability, T/C [34]: 41.5%; viability, T/C [35]: 20.7% |
| COc1cc2nccc(Oc3ccc(NC(=O)C4(C(=O)Nc5ccc(F)cc5)CC4)cc3)c2cc1OC |  |  |  |  |  |  |  |  |  |  |  |  |  |  |  |  |  |  |  |  | viability, T/C (compound 0.0316 µM): 99.7% [middle of 5 runs]; viability, T/C (compound 0.1 µM): 98.8% [middle of 4 runs]; viability, T/C (compound 0.316 µM): 103% [middle of 5 runs]; viability, T/C (compound 1 µM): 109% [middle of 5 runs]; viability, T/C (compound 10 µM): 39.7% [middle of 5 runs] |
| CC1COCCN1c1cc(-c2ccnn2C)c2ccnc(-c3ccn[nH]3)c2n1 (stereo not drawn) + CNCc1ccccc1-c1csc(C(C)Nc2nc(C)nc3cc(OC)c(OC)cc23)c1 | 0.0305 µM | 0.0238 µM | 0.0221 µM | < 0.01 µM | < 0.01 µM | 48.3% | 11.4% | 35% | 12.4% | 25.3% | 8.4% | 0.11% | 0.07% | 0.15% | 0.13% | 13.6% | 20.8% | 29.5% | 11.7% | 20.7% | viability, T/C [1]: 101%; viability, T/C [4]: 95.9%; viability, T/C [22]: 25.9%; viability, T/C [7]: 105%; viability, T/C [24]: 11.7%; viability, T/C [25]: 21.2%; viability, T/C [26]: 22.9%; viability, T/C [10]: 0.3%; viability, T/C [28]: 0.06%; viability, T/C [29]: 0.08%; viability, T/C [30]: 0.33%; viability, T/C [13]: 0.14%; viability, T/C [32]: 0.13%; viability, T/C [33]: 0.12%; viability, T/C [34]: 0.22% |
| COc1cc(Nc2ncc3c(n2)-c2ccc(Cl)cc2C(c2c(F)cccc2OC)=NC3)ccc1C(=O)O + C=CC(=O)N1CCN(c2nc(=O)n(-c3c(C)ccnc3C(C)C)c3nc(-c4c(O)cccc4F)c(F)cc23)C(C)C1 | < 0.0316 µM | < 0.0316 µM | < 0.0316 µM | < 0.0316 µM | < 0.0316 µM | 47.6% | 49.3% | 43.2% | 44.5% | 48.1% | 44.8% | 47.5% | 45.9% | 40.6% | 43.5% | 43% | 42.2% | 46.1% | 52.2% | 44.5% | viability, T/C [19]: 38.8%; viability, T/C [22]: 44.3%; viability, T/C [23]: 36.4%; viability, T/C [24]: 43.1%; viability, T/C [25]: 48%; viability, T/C [27]: 32.7%; viability, T/C [28]: 36%; viability, T/C [29]: 40.3%; viability, T/C [30]: 37%; viability, T/C [31]: 31.9%; viability, T/C [32]: 38.5%; viability, T/C [33]: 37.5%; viability, T/C [34]: 34.8%; viability, T/C [35]: 39.6% |
| CC1COCCN1c1cc(-c2ccnn2C)c2ccnc(-c3ccn[nH]3)c2n1 (stereo not drawn) + C=CC(=O)N1CCN(c2nc(=O)n(-c3c(C)ccnc3C(C)C)c3nc(-c4c(O)cccc4F)c(F)cc23)C(C)C1 | 0.0302 µM | 0.0403 µM | 0.0301 µM | 0.0243 µM | 0.0115 µM | 47.9% | 10.5% | 58.5% | 11.4% | 47.6% | 10.5% | 41.3% | 11.6% | 18.1% | 13.2% | 13.5% | 24.1% | 26.9% | 13% | 20.3% | viability, T/C [1]: 101%; viability, T/C [4]: 114%; viability, T/C [22]: 28%; viability, T/C [7]: 102%; viability, T/C [24]: 13.6%; viability, T/C [25]: 25.6%; viability, T/C [26]: 29%; viability, T/C [10]: 79.2%; viability, T/C [28]: 13.7%; viability, T/C [29]: 22.6%; viability, T/C [13]: 54.1%; viability, T/C [32]: 18.1%; viability, T/C [33]: 23.4%; viability, T/C [34]: 25.5% |
| CCNC(=O)CC1N=C(c2ccc(Cl)cc2)c2cc(OC)ccc2-n2c(C)nnc21 (stereo not drawn) + CC1OCC2(CCN(c3cnc(Sc4ccnc(N)c4Cl)c(N)n3)CC2)C1N | 0.289 µM | 0.172 µM | 0.127 µM | 0.132 µM | 0.0929 µM | 71.5% | 71.2% | 76.3% | 61.1% | 66% | 51.5% | 65.8% | 52.2% | 60.7% | 47.8% | 47.3% | 33.8% | 26.5% | 36.9% | 29.7% | viability, T/C [19]: 28.7%; viability, T/C [22]: 23.6%; viability, T/C [23]: 22.6%; viability, T/C [24]: 40.4%; viability, T/C [25]: 25.7%; viability, T/C [26]: 19.6%; viability, T/C [27]: 20.8%; viability, T/C [28]: 40%; viability, T/C [29]: 23.5%; viability, T/C [30]: 20%; viability, T/C [31]: 20.4%; viability, T/C [32]: 35.7%; viability, T/C [33]: 20.6%; viability, T/C [34]: 15.9%; viability, T/C [35]: 16.9% |
